# Reference: PMC9144278, “Inclusion of a Phytomedicinal Flavonoid in Biocompatible Surface-Modified Chylomicron Mimic Nanovesicles with Improved Oral Bioavailability and Virucidal Activity: Molecular Modeling and Pharmacodynamic Studies” (Pharmaceutics, 2022)
# Read-outs that look alike come from different tables or passages of the source.
# Assays:
# [1] = Particle size, zeta potential and PDI by Zetasizer (dynamic laser scattering); type: physicochemical
# Description: The MH-charged PCMs (0.10 mL) were admixed with distilled water (10.0 mL) in a glass culture tube and vortexed for 5 min. The particle sizes and their scattering surrounding the mean (including those of the pure-MH dispersion, shown in Supplementary Materials Figure S1) were determined at 25 °C using dynamic laser scattering with a 45 mm focus lens and a beam length of 2.4 mm. The same instrument was utilized for the ZP measurements of the electrophoretic mobility of the particles in the electric field.
# [2] = test system: MERS-related coronavirus isolate NRCE-HKU270; test: microbe, parasite or virus in culture; type: cell-based, MERS-CoV
# [3] = test system: IFN-γ, TNF-α, IL-6, IL-4, SOD in BALF; parameters: species or system C57BL/6 mice; details: mouse, in vivo, po, 10 mg/kg
# [4] = test system: lung tissue; parameters: species or system C57BL/6 mice; details: mouse, in vivo
# [5] = test system: myeloperoxidase (MPO) and NF-κB; parameters: species or system C57BL/6 mice; details: mouse, in vivo
# [6] = Pharmacokinetic study after oral administration; details: rat
# [7] = test system: MERS-CoV; type: in vivo, C57BL/6 mice; details: oral 10 mg/kg once daily
# [8] = test system: Vero E6 cells; test: MTT cytotoxicity assay (TC50); type: cell-based, African green monkey; details: 24 h
# Description: Dulbecco’s Modified Eagle’s Medium (DMEM) was utilized for sample dilutions. The stock solutions of the investigated formulations were employed as solutions in 10% DMSO in double-distilled H2O. Cells were harvested in 96-well plates (100-µL/well at a density of 3 × 10^5 cells/mL) and were incubated for 24 h at 37 °C in 5% CO2. Afterwards, various amounts of the investigated compounds were added to the cells, and each experiment was performed in triplicate. After an extra 24 h, cell monolayers were dislodged from the supernatant and then rinsed 3 times with sterile phosphate buffer saline (PBS). MTT solution (20.0 µL of 5.00 mg/mL stock solution) was added into each well, and the cells were incubated for 4 h at 37 °C, followed by aspiration of the medium. […] The absorbances of the formazan solutions were assessed at λmax 540 vs. the 620 nm reference wavelength, using a multiwell plate reader. The cytotoxicity percentages related to the untreated cells were computed via GraphPad Prism software (version 7.01) using the following formula: %Cytotoxicity = (absorbance of cells without treatment − absorbance of cells with treatment) × 100 (absorbance of cells without treatment) […]
# [9] = Ex vivo drug gut-permeation study, noneverted gut sac technique; type: in vitro ADME, male Wistar rats; details: rat intestine
# Description: A comparative ex vivo intestinal transport study between the drug suspension and the optimized formula was conducted using the noneverted gut sac technique. […] The small intestine from each animal was then excised and sliced into sections 5 cm in length. The sections were then rinsed using normal saline. Krebs–Ringer solution (~2 mL) was utilized to irrigate the intestinal segments, followed by sac formation by closing the lower portion of the segments using a thread. Each sac was filled with a sample of the pure MH suspension (estimated to comprise 5.0 mg of MH) or with the optimized F9 formulation (estimated to comprise 5.0 mg of MH). Finally, each sac was allocated in an organ path packed with 50 mL of Krebs–Ringer solution after the lower portion of each sac was tightly sealed with a thread. […] CO2 mixture. […] To maintain a constant total volume, the organ path was compensated by the addition of equal volumes of fresh Krebs–Ringer solution after each sample for analysis had been withdrawn. The amounts of MH that had permeated through the intestinal segment were determined via HPLC using a Hitachi LaChrom Elite instrument equipped with a Model Series L-2000 organizer box, L-2300 column oven, L-2130 pump with built in degasser, Rheodyne 7725i injector with a […], and a L-2455 photodiode array detector (PAD). […]
# [10] = cited from earlier work
# [11] = male, Wistar albino, in vivo, po, 20 mg/kg
smiles,measurement,setting,value
"O=c1c(O)c(-c2ccc(O)cc2O)oc2cc(O)cc(O)c12 [MH, 2′,3,4′,5,7-pentahydroxyflavone]",particle sizes of MH dispersion,[1]; MH dispersion in PBS used for oral dosing,672.3 ± 32.1
same,PDI polydispersity index,[1]; mean ± SD (n = 3),0.576 ± 0.1
same,selectivity index (SI = CC50/EC50),[2],19.4
same,EC50,"[2]; Middle East respiratory syndrome-related coronavirus, Vero C1008, read-out: EC50 antiviral activity",0.13 µg/mL
same,inhibition at 0.125 µg/mL,"[2]; Middle East respiratory syndrome-related coronavirus, Vero C1008, read-out: inhibition efficacy (viral plaques)",48%
same,IFN-γ level in BALF,[3],82.7 ± 7.51 pg/mg protein
same,IL-4 level in BALF,[3],23.5 ± 2.10 pg/mg protein
same,IL-6 level in BALF,[3],112.9 ± 14.6 pg/mg protein
same,SOD level in BALF,[3],2.2 ± 0.35 U/mg protein
same,TNF-α level in BALF,[3],57.4 ± 6.2 pg/mg protein
same,effect on lung pathological alterations,[4],marked suppression in all of those alterations
same,effect on MPO and NF-κB protein expression in lung,[5],markedly suppressed the protein expression compared with the infected group
same,AUC(0-inf),[6]; [11],77000 ± 22000 ng·h/mL
same,Tmax,[6]; [11],2 h
same,AUC(0-t),"[6]; male, Wistar albino, in vivo, po, 20 mg/kg, AUC0–24, rat, 20 mg/kg MH, n = 6",56100 ± 16200 ng·h/mL
same,Cmax,"[6]; male, Wistar albino, in vivo, po, 20 mg/kg, Cmax, 20 mg/kg MH, n = 6",4820 ± 840 ng/mL
same,AUC0–24,"[6]; oral, 20 mg/kg MH, n = 6, listed as Morin Hydrate Dispersion",56000 ± 16000 ng·h/mL
same,% plaque prohibition in lung homogenate,[7]; after 3 d postinfection,27.1%
same,% plaque prohibition in lung homogenate,[7]; after 6 d postinfection,44.8%
same,concentration for 50% cell cytotoxicity (TC50),[8],2.53 µg/mL
same,Papp at 90 min,"[9]; male, Wistar, read-out: apparent permeability coefficient (APC) (converted)",2.53 ×10⁻⁶ cm/s
same,flux (Jmax),[9]; after 90 min,0.37 ± 0.018 μg/cm^2/min
NC(=O)N1c2ccccc2CC(=O)c2ccccc21 [oxycarbazepine],pKa,[10],10.7
